From US12053476B2, “Compounds, compositions and methods for cancer patient stratification and cancer treatment” (BAYER PHARMA AKTIENGESELLSCHAFT, priority 2016, dated 2024)

What was measured:
[1] = In vitro metabolic stability in cryopreserved human hepatocytes; assay type: in vitro ADME; conditions: 1 μM test compound
Method: Investigation of In Vitro Metabolic Stability in Cryopreserved Human Hepatocytes (Including Calculation of Hepatic In Vivo Blood Clearance (CL) and Maximal Oral Bioavailability (Fmax))
Cryopreserved Hepatocytes (e.g. purchased from Celsis InVitroTechnologies) were briefly thawed, washed with 45 mL pre-warmed in in vitro GRO HT medium and centrifuged for 5 min at 50×g. The cell pellet was resuspended in 5 ml of Krebs-Henseleit […] (KHB). Cell viability was determined by trypan blue exclusion.
For the metabolic stability assay liver cells were distributed in WME containing 5% FCS to glass vials at a density of 1.0×10^6 vital cells/ml. The test compound was added to a final concentration of 1 μM. During incubation, the hepatocyte suspensions were continuously shaken at 580 rpm and aliquots were taken at 2, 8, 16, 30, 45 and 90 min, to which equal volumes of cold methanol were immediately added. Samples were frozen at −20° C. over night, after subsequently centrifuged for 15 minutes at 3000 rpm and the supernatant was analyzed with an Agilent 1290 HPLC-system with LCMS/MS detection.
The half-life of a test compound was determined from the concentration-time plot. From the half-life the intrinsic clearances were calculated. […] The hepatic in vivo blood clearance (CL) and the maximal oral bioavailability (Fmax) was calculated.

PDE3A(677-1141) = biological target: T1, PDE3A(677-1141) (Homo sapiens, UniProt Q14432); experiment: Differential scanning fluorimetry (DSF) binding to purified PDE3A catalytic domain; conditions: 5 μM PDE3A, 100 μM compound
T1 construct: purified PDE3A catalytic domain, PDE3A(677-1141)
Method: Binding buffer: 20 mM Hepes pH 7.4, 100 μM TCEP, 1 mM MgCl2, 150 mM NaCl.

PDE3A = biological target: T2, PDE3A (Homo sapiens, UniProt Q14432); experiment: Linker-affinity purification of molecular target of DNMDP and immunoblotting (competition); assay type: binding; conditions: HeLa cell lysate, 10 μM compound
T2 construct: endogenous in cells; host or cells: HeLa
Method: To identify the molecular target of DNMDP, an affinity purification was performed using an (R)-des-nitro-DNMDP solid-phase tethered linker analogue (FIG. 10A) incubated with HeLa cell lysate. […] It was competed for the molecular target by adding either an excess of trequinsin or separate enantiomers of DNMDP, where only the (R)-enantiomer was cytotoxic. […] Binding of PDE3A to the linker analogue was blocked by both trequinsin and (R)-DNMDP, but not by the non-cytotoxic enantiomer (S)-DNMDP (FIG. 9C). Thus both trequinsin and (R)-DNMDP prevented the binding of PDE3A to the tethered DNMDP analogue, and it was concluded that both molecules bind PDE3A directly.
HeLa cells were washed with ice-cold PBS before lysed with NP-40 lysis buffer (150 mM NaCl, 10% glycerol, 50 mM Tris-Cl pH 8.0, 50 mM MgCl2, 1% NP-40) supplemented with EDTA-free protease inhibitors (Roche) and phosphatase inhibitor mixtures I and II (Calbiochem). Cell lysates were incubated on ice for at least 2 minutes and subsequently centrifuged for 10 minutes at 4° C. at 15,700×g after which the supernatant was quantified using BCA protein assay kit (Pierce). […] total HeLa cell lysate was incubated with 3 μl Affi-Gel 102 resin (BioRad) coupled to affinity linker DNMDP-2L in a total volume of 400 μl for four hours. Prior to incubation, indicated compounds were added to affinity purifications at a final concentration of 10 μM. Samples were washed three times with lysis buffer containing corresponding compound concentrations of 10 μM. Proteins bound to Affi-Gel 102 resin were reduced, denatured, and separated using Tris-Glycine gels (Novex) and transferred to nitrocellulose membranes using the iBlot transfer system (Novex). Membranes were incubated overnight at 4° C. with primary antibodies against PDE3A (1:1000, Bethyl). Incubation with secondary antibodies (1:20,000, LI-COR Biosciences) for two hours at room temperature and subsequent detection (Odyssey Imaging System, LI-COR Biosciences) were performed according to manufacturer's recommendations.

HeLa cells [2] = experiment: Compound sensitivity testing in cell lines (cell viability, 48 h); assay type: cell-based, human
Method: 1500 NCI-H1734 or 1000 A549 cells were plated in a 384-well plate in 40 μl of RPMI supplemented with 10% Fetal Bovine Serum and 1% Pen/Strep. 24 hours after plating, a compound-library of 1924 small molecules was added at a concentration of 10 μM. Staurosporine was used a positive control for cytotoxicity at a concentration of 10 μM, and DMSO was used a negative control at a concentration of 1%. All compounds were incubated for 48 hours with indicated small molecules. After 48 hours, 384-well plates were removed from the incubator and allowed to cool to room temperature for 20 minutes. Cell viability was assessed by adding 40 μl of a 25% CELLTITERGLO® (Promega) in PBS with a THERMO COMBI™ or multichannel-pipette and incubated for 10 minutes. The luminescence signal was read using a Perkin-Elmer EnVision. Viability percentage was calculated by normalizing to DMSO controls.
1000 HeLa (DMEM), 1000 A549 (RPMI), 500 MCF-7 (DMEM), 4000 PC3 (F12-K), 1000 NCI-H2122 (RPMI) or 1500 NCI-H1563 (RPMI) cells were plated in a 384-well plate in 40 μl of corresponding growth media supplemented with 10% Fetal Bovine Serum. 24 hours after plating, indicated compounds were added at indicated concentrations and incubated for 48 hours. Cell viability was assessed as described in Compound library screening in NCI-H1734 and A549 cell lines.

HeLa cells [3] = experiment: Follow-up dose-dependent rescue of DNMDP cytotoxicity (competition with DNMDP); assay type: cell-based, human; conditions: co-treatment with DNMDP, 48 h; for rescue of DNMDP cytotoxicity / competition (in words): up to 10 μM
HeLa cells [4] = experiment: Bioactives screen to rescue DNMDP induced cytotoxicity; assay type: cell-based, human; conditions: 20 μM bioactive + 30 nM DNMDP, 48 h
Source text: Most importantly, PDE4 competitive inhibitors and PDE4 allosteric modulators with similar IC50s for cAMP hydrolysis in vitro had different cellular activities and safety profiles in animal studies (Burgin et al., Nat Biotechnol 28, 63-70, 2010). To evaluate whether PDE inhibitors or other small molecules compete with DNMDP, the PHARMAKON 1600 collection of 1600 bioactive compounds (PHARMAKON 1600 is a unique collection of 1600 known drugs from US and International Pharmacopeia) was screened to identify compounds that were able to rescue cell death induced by DNMDP. HeLa cells were co-treated with 30 nM DNMDP (the EC70 concentration) and 20 μM of each bioactive compound. Cell viability after 48-hour treatment was assessed by ATP […] as described earlier.
Bioactives Screen to Rescue DNMDP Induced Cytotoxicity 1000 HeLa cells were plated in a 384-well plate in 40 μl of DMEM supplemented with 10% Fetal Bovine Serum and 1% Pen/Strep. 24 hours after plating, a compound-library of 1600 bioactive molecules (Pharmacon) was added at a concentration of 20 μM. In parallel to bioactive compound incubation, DNMDP was added to a final concentration of 30 nM and incubated for 48 hours. Cell viability was assessed as described in Compound library screening in NCI-H1734 and A549 cell lines. Linker-Affinity Purification of Molecular Target of DNMDP and Immunoblotting

T1 sequence (Q14432 677-1141): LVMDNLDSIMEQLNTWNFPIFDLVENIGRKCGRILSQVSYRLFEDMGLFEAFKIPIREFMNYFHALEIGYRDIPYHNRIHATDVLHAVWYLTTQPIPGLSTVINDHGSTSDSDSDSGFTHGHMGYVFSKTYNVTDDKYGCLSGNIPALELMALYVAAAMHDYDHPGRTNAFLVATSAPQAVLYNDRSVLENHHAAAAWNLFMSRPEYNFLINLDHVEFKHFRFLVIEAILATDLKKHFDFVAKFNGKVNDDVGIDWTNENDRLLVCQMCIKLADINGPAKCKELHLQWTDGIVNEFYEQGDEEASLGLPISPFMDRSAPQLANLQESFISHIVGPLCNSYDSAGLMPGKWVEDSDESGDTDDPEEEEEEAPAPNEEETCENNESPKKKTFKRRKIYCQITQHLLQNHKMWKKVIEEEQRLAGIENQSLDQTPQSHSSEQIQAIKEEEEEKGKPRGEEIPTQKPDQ
T2 sequence (Q14432 whole entry): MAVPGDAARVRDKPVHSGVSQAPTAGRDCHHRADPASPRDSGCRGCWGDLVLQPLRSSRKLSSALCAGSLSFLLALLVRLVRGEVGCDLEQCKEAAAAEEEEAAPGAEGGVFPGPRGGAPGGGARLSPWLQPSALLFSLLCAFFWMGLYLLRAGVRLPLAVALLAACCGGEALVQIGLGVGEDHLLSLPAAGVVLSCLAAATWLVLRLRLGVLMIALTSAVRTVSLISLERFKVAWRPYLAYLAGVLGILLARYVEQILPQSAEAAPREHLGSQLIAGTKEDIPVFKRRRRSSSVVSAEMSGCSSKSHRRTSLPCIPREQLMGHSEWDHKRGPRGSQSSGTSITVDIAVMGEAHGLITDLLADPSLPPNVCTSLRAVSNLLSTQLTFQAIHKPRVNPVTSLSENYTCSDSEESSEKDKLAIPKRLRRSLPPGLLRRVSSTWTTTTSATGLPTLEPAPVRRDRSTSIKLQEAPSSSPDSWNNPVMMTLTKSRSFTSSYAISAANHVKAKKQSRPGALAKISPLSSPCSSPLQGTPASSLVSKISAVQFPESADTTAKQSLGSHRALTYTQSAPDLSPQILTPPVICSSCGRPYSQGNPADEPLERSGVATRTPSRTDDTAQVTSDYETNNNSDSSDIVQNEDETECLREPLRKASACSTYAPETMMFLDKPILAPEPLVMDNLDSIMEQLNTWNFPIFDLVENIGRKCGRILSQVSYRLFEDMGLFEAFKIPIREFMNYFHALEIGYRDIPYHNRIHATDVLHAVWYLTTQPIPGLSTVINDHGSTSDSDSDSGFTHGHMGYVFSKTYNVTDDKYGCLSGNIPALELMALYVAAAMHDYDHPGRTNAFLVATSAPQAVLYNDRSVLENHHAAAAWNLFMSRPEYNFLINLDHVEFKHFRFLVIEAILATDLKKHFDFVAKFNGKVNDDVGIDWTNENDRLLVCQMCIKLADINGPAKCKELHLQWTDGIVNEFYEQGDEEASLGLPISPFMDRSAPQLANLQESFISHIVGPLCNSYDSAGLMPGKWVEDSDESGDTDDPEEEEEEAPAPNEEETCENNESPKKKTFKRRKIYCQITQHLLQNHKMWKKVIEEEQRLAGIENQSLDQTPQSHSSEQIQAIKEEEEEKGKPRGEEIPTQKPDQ

Row | Compound | Tm (PDE3A(677-1141)) [°C] | blocking of PDE3A binding to the tethered linker analogue (PDE3A) | rescue of DNMDP cytotoxicity / competition (in words) (HeLa cells [3]) | also measured
1 | CCN(CC)c1ccc(C2=NNC(=O)C[C@H]2C)cc1[N+](=O)[O-] [(R)-DNMDP, (R)-6-(4-(diethylamino)-3-nitrophenyl)-5-methyl-4,5-dihydropyridazin-3(2H)-one] | – | blocked | – | –
2 | CN(C(=O)CCCOc1ccc2[nH]c(=O)ccc2c1)C1CCCCC1 [cilostamide, N-cyclohexyl-N-methyl-4-[(2-oxo-1H-quinolin-6-yl)oxy]butanamide] | – | – | able to rescue DNMDP cytotoxicity in a dose-dependent manner | –
3 | O=C1CCc2cc(OCCCCc3nnnn3C3CCCCC3)ccc2N1 [cilostazol, 6-[4-(1-cyclohexyl-1H-tetrazol-5-yl)butoxy]-3,4-dihydro-2(1H)-quinolinone] | – | – | – | rescue of cell death induced by DNMDP (rank in screen) (HeLa cells [4]): three most potent compounds
4 | CC(C)C(=O)c1c(C(C)C)nn2ccccc12 [idubulast] | – | – | not effective competitors | –
5 | Cc1[nH]c(=O)c(C#N)cc1-c1ccncc1 [milrinone, 2-methyl-6-oxo-1,6-dihydro-3,4′-bipyridine-5-carbonitrile] | – | – | able to rescue DNMDP cytotoxicity in a dose-dependent manner | rescue of cell death induced by DNMDP (rank in screen) (HeLa cells [4]): three most potent compounds
6 | CCCc1nn(C)c2c(=O)[nH]c(-c3cc(S(=O)(=O)N4CCN(C)CC4)ccc3OCC)nc12 [sildenafil, 1-[4-ethoxy-3-(6,7-dihydro-1-methyl-7-oxo-3-propyl-1H-pyrazolo[4,3-d]pyrimidin-5-yl)phenylsulfonyl]-4-methylpiperazine] | – | – | not effective competitors | –

Further lines, with some results ahead:

Row | Tm (PDE3A(677-1141)) [°C] | blocking of PDE3A binding to the tethered linker analogue (PDE3A) | Compound | rescue of DNMDP cytotoxicity / competition (in words) (HeLa cells [3]) | also measured
7 | 59.0 ± 0.0 | – | C[C@@H]1CC(=O)NN=C1c1ccc(N2CCOCC2)c(F)c1 (single isomer, unassigned) [Compound 3] | – | mean metabolic stability (Fmax) [1]: 49%; ΔTm at 100 µM (PDE3A(677-1141)): 6.6 °C
8 | – | not | CCN(CC)c1ccc(C2=NNC(=O)C[C@@H]2C)cc1[N+](=O)[O-] [(S)-DNMDP] | – | –
9 | 56.6 ± 0.0 | – | O=C1CN2Cc3c(ccc(Cl)c3Cl)N=C2N1 [Anagrelide, 6,7-dichloro-1,5-dihydroimidazo (2,1-b)quinazolin-2(3H)-one, reference compound] | – | –
10 | 66.2 ± 0.0 | blocked | COc1cc2c(cc1OC)-c1c/c(=N\c3c(C)cc(C)cc3C)n(C)c(=O)n1CC2 [Trequinsin, 9,10-dimethoxy-3-methyl-2-(2,4,6-trimethylphenyl)imino-6,7-dihydropyrimido[6,1-a]isoquinolin-4-one, reference compound] | – | effect on HeLa cell viability (in words) (HeLa cells [2]): did not affect HeLa cell viability in any detectable way; EC50 (HeLa cells [3]; Homo sapiens, read-out: RC50 (the concentration at which it achieved 50% rescue)): < 1 nM
